Consider 11 compounds from patent publication US12384771B2, “Pleuromutilin derivative containing thiazole-pyridine benzyl quaternary ammonium salt side chain and preparation method and use thereof” (SHAANXI UNIVERSITY OF SCIENCE AND TECHNOLOGY, priority 2022, dated 2025).

Common to all, as to assay: MIC, microbroth dilution, standard strains
Holding throughout (type): cell-based
On the technique in general: Dilution methods test growth across graded concentrations, often in twofold steps.

Experiment [1] concerns Staphylococcus epidermidis ATCC 12228. The method, then: (§1) The minimum inhibitory concentration (MIC) of the pleuromutilin derivative containing thiazole-pyridine benzyl quaternary ammonium salt side chain was tested with moxifloxacin as a positive control (purchased from Shanghai Macklin Biochemical Technology Co., Ltd.) using a microbroth dilution method.
(§2) Standard strains include gram-positive bacteria: Staphylococcus epidermidis ATCC 12228, Staphylococcus aureus ATCC 29213, ATCC 25923 and methicillin-resistant Staphylococcus aureus ATCC 33591; gram-negative bacteria: Salmonella ATCC 14028, Acinetobacter baumannii ATCC 19606, Escherichia coli ATCC 25922 and CMCC 44103, all the strains were purchased from the American Type Culture Collection.

Experiment [2] concerns Staphylococcus aureus ATCC 29213. The method, then:
as §1, §2

For experiment [3], the system named is Escherichia coli CMCC 44103. The method, then:
as §1, §2

Experiment [4] concerns Staphylococcus aureus ATCC 25923. The method, then:
as §1, §2

Experiment [5] deals with methicillin-resistant Staphylococcus aureus ATCC 33591. The method, then:
as §1, §2

The test system of experiment [6] is Acinetobacter baumannii ATCC 19606. The method, then:
as §1, §2

Experiment [7] has as its system Salmonella ATCC 14028. The method, then:
as §1, §2

Experiment [8] deals with Escherichia coli ATCC 25922. The method, then:
as §1, §2

The mark [9] stands for this setting: ATCC12228, read-out: Minimum inhibitory concentration.
The mark [10] stands for this setting: ATCC29213, read-out: Minimum inhibitory concentration.
[11] abbreviates: CMCC44103, read-out: Minimum inhibitory concentration.
[12] abbreviates: ATCC25923, read-out: Minimum inhibitory concentration.
Setting [13] is: ATCC33591, read-out: Minimum inhibitory concentration.
Where [14] appears, read: ATCC19606, read-out: Minimum inhibitory concentration.
Where [15] appears, read: ATCC12228, ATCC 12228, read-out: Minimum inhibitory concentration.
[16] abbreviates: ATCC29213, ATCC 29213, read-out: Minimum inhibitory concentration.
[17] abbreviates: CMCC44103, CMCC 44103, read-out: Minimum inhibitory concentration.
The mark [18] stands for this setting: ATCC14028, ATCC 14028, read-out: Minimum inhibitory concentration.
[19] abbreviates: ATCC25923, ATCC 25923, read-out: Minimum inhibitory concentration.
Setting [20] is: ATCC25922, ATCC 25922, read-out: Minimum inhibitory concentration.
[21] abbreviates: ATCC33591, ATCC 33591, read-out: Minimum inhibitory concentration.
[22] abbreviates: ATCC19606, ATCC 19606, read-out: Minimum inhibitory concentration.

Where a name gives a salt, the structure may show the parent alone. Read-outs that look alike come from different tables or passages of the source.

In the case of `C=C[C@]1(C)C[C@@H](OC(=O)CSc2nc(-c3cc[n+](Cc4ccccc4)cc3)cs2)[C@]2(C)[C@H](C)CC[C@]3(CCC(=O)[C@H]32)[C@@H](C)[C@@H]1O` [Compound 1, 1-Benzyl-4-(2-(((8-hydroxy-4,7,9,12-tetramethyl-3-oxy-7-vinyldecahydro-4,9a-propanecyclopenta[8]cyclen-5-yl)oxy)-2-oxoethyl)thiothiazol-4-yl)pyridyl bromide salt], the MIC in experiment [1] (setting [9]) came out at 2 µg/mL; in experiment [2] (setting [10]) it was 0.125 µg/mL; in experiment [3] (setting [11]), 0.25 µg/mL; in experiment [4] (setting [12]), 0.5 µg/mL; in experiment [5] (setting [13]) it was 1 µg/mL; in experiment [6] (setting [14]), 4 µg/mL.

Consider `C=C[C@]1(C)C[C@@H](OC(=O)CSc2nc(-c3cc[n+](Cc4ccc(C(F)(F)F)cc4)cc3)cs2)[C@]2(C)[C@H](C)CC[C@]3(CCC(=O)[C@H]32)[C@@H](C)[C@@H]1O` [Compound 3, 1-(4-(trifluoromethyl)benzyl)-4-(2-(8-hydroxy-4,7,9,12-tetramethyl-3-oxo-7-vinyldecahydro-4,9a-propancyclopent[8]cyclen-5-yl)oxy)-2-oxoethyl)thiazol-4-yl)pyridyl bromide salt], for which the MIC in experiment [1] (setting [15]) was found to be 1 µg/mL; in experiment [2] (setting [16]) it was 0.25 µg/mL; in experiment [3] (setting [17]) it was 2 µg/mL; in experiment [7] (setting [18]) it was 2 µg/mL; in experiment [4] (setting [19]) it was 1 µg/mL; in experiment [8] (setting [20]), 1 µg/mL. Further, the MIC in experiment [5] (setting [21]) and in experiment [6] (setting [22]) was 2 µg/mL throughout.

`C=C[C@]1(C)C[C@@H](OC(=O)CSc2nc(-c3cc[n+](Cc4ccc(OC(F)(F)F)cc4)cc3)cs2)[C@]2(C)[C@H](C)CC[C@]3(CCC(=O)[C@H]32)[C@@H](C)[C@@H]1O` [Compound 5, 1-(4-(trifluoromethoxy)benzyl)-4-(2-(8-hydroxy-4,7,9,12-tetramethyl-3-oxo-7-vinyldecahydro-4,9a-propancyclopent[8]cyclen-5-yl)oxy)-2-oxoethyl)thiazol-4-yl)pyridyl bromide salt]: the MIC in experiment [1] (setting [15]) amounted to 2 µg/mL; in experiment [2] (setting [16]) it was 2 µg/mL; in experiment [3] (setting [17]) it was 32 µg/mL; in experiment [7] (setting [18]), 4 µg/mL; in experiment [4] (setting [19]), 32 µg/mL; in experiment [8] (setting [20]), 2 µg/mL. In addition, the figures for the MIC in experiment [5] (setting [21]) and in experiment [6] (setting [22]) were 2 µg/mL and 8 µg/mL, respectively.

As for `C=C[C@]1(C)C[C@@H](OC(=O)CSc2nc(-c3cc[n+](Cc4ccc(C(C)(C)C)cc4)cc3)cs2)[C@]2(C)[C@H](C)CC[C@]3(CCC(=O)[C@H]32)[C@@H](C)[C@@H]1O` [Compound 6, 1-(4-(tert-butyl)benzyl)-4-(2-(8-hydroxy-4,7,9,12-tetramethyl-3-oxo-7-vinyldecahydro-4,9a-propancyclopent[8]cyclen-5-yl)oxy)-2-oxoethyl)thiazol-4-yl)pyridyl bromide salt], the MIC in experiment [1] (setting [15]) is 2 µg/mL; in experiment [2] (setting [16]) it was 0.25 µg/mL; in experiment [3] (setting [17]), 2 µg/mL; in experiment [7] (setting [18]), 2 µg/mL; in experiment [4] (setting [19]) it was 0.5 µg/mL; in experiment [8] (setting [20]), 2 µg/mL. For the same compound, the MIC in experiment [5] (setting [21]) worked out at 1 µg/mL; in experiment [6] (setting [22]), 2 µg/mL.

Regarding `C=C[C@]1(C)C[C@@H](OC(=O)CSc2nc(-c3cc[n+](Cc4ccc(C#N)cc4)cc3)cs2)[C@]2(C)[C@H](C)CC[C@]3(CCC(=O)[C@H]32)[C@@H](C)[C@@H]1O` [Compound 8, 1-(4-(cyano)benzyl)-4-(2-(8-hydroxy-4,7,9,12-tetramethyl-3-oxo-7-vinyldecahydro-4,9a-propancyclopent[8]cyclen-5-yl)oxy)-2-oxoethyl)thiazol-4-yl)pyridyl bromide salt], the MIC in experiment [1] (setting [9]) was 8 µg/mL; in experiment [2] (setting [10]), 0.125 µg/mL; in experiment [3] (setting [11]), 8 µg/mL; in experiment [7] (ATCC14028, read-out: Minimum inhibitory concentration) it was 32 µg/mL; in experiment [4] (setting [12]) it was 1 µg/mL; in experiment [8] (ATCC25922, read-out: Minimum inhibitory concentration), 2 µg/mL. The figures for the MIC in experiment [5] (setting [13]) and in experiment [6] (setting [14]) were 64 µg/mL and 32 µg/mL, respectively.

Turning to `C=C[C@]1(C)C[C@@H](OC(=O)CSc2nc(-c3cc[n+](Cc4ccc(F)cc4)cc3)cs2)[C@]2(C)[C@H](C)CC[C@]3(CCC(=O)[C@H]32)[C@@H](C)[C@@H]1O` [Compound 9, 1-(4-fluorobenzyl)-4-(2-(8-hydroxy-4,7,9,12-tetramethyl-3-oxo-7-vinyldecahydro-4,9a-propancyclopent[8]cyclen-5-yl)oxy)-2-oxoethyl)thiazol-4-yl)pyridyl bromide salt], the MIC amounted to 2 µg/mL in experiment [1] (setting [15]); 1 µg/mL in experiment [2] (setting [16]); 1 µg/mL in experiment [3] (setting [17]); 1 µg/mL in experiment [7] (setting [18]); 1 µg/mL in experiment [4] (setting [19]); 2 µg/mL in experiment [8] (setting [20]). The MIC in experiment [5] (setting [21]) was 2 µg/mL; in experiment [6] (setting [22]) it was 16 µg/mL.

`C=C[C@]1(C)C[C@@H](OC(=O)CSc2nc(-c3cc[n+](Cc4ccc(Cl)cc4)cc3)cs2)[C@]2(C)[C@H](C)CC[C@]3(CCC(=O)[C@H]32)[C@@H](C)[C@@H]1O` [Compound 10, 1-(4-chlorobenzyl)-4-(2-(8-hydroxy-4,7,9,12-tetramethyl-3-oxo-7-vinyldecahydro-4,9a-propancyclopent[8]cyclen-5-yl)oxy)-2-oxoethyl)thiazol-4-yl)pyridyl bromide salt]: the MIC in experiment [1] (setting [15]) is 2 µg/mL; in experiment [2] (setting [16]), 0.125 µg/mL; in experiment [3] (setting [17]) it was 1 µg/mL; in experiment [7] (setting [18]) it was 2 µg/mL; in experiment [4] (setting [19]) it was 2 µg/mL; in experiment [8] (setting [20]), 0.5 µg/mL. In addition, the MIC in experiment [5] (setting [21]) and in experiment [6] (setting [22]) was 2 µg/mL each time.

Take `C=C[C@]1(C)C[C@@H](OC(=O)CSc2nc(-c3cc[n+](Cc4ccc(Br)cc4)cc3)cs2)[C@]2(C)[C@H](C)CC[C@]3(CCC(=O)[C@H]32)[C@@H](C)[C@@H]1O` [Compound 11, 1-(4-bromobenzyl)-4-(2-(8-hydroxy-4,7,9,12-tetramethyl-3-oxo-7-vinyldecahydro-4,9a-propancyclopent[8]cyclen-5-yl)oxy)-2-oxoethyl)thiazol-4-yl)pyridyl bromide salt]: the MIC in experiment [1] (setting [15]) was 2 µg/mL; in experiment [2] (setting [16]) it was 0.5 µg/mL; in experiment [3] (setting [17]), 0.5 µg/mL; in experiment [7] (setting [18]), 4 µg/mL; in experiment [4] (setting [19]), 1 µg/mL; in experiment [8] (setting [20]) it was 2 µg/mL. Further, the MIC in experiment [5] (setting [21]) and in experiment [6] (setting [22]) was 2 µg/mL in each case.

On to `C=C[C@]1(C)C[C@@H](OC(=O)CSc2nc(-c3cc[n+](Cc4ccc(-c5ccccc5)cc4)cc3)cs2)[C@]2(C)[C@H](C)CC[C@]3(CCC(=O)[C@H]32)[C@@H](C)[C@@H]1O` [Compound 12, 1-([1,1′-biphenyl]-4-ylmethyl)-4-(2-(8-hydroxy-4,7,9,12-tetramethyl-3-oxo-7-vinyldecahydro-4,9a-propancyclopent[8]cyclen-5-yl)oxy)-2-oxoethyl)thiazol-4-yl)pyridyl bromide salt], for which the MIC worked out at 2 µg/mL in experiment [1] (setting [15]); 0.5 µg/mL in experiment [2] (setting [16]); 1 µg/mL in experiment [3] (setting [17]); 2 µg/mL in experiment [7] (setting [18]); 1 µg/mL in experiment [4] (setting [19]); 1 µg/mL in experiment [8] (setting [20]). Further, the MIC in experiment [5] (setting [21]) and in experiment [6] (setting [22]) was 2 µg/mL throughout.

Turning to `C=C[C@]1(C)C[C@@H](OC(=O)CSc2nc(-c3cc[n+](Cc4cc(C)cc(C)c4)cc3)cs2)[C@]2(C)[C@H](C)CC[C@]3(CCC(=O)[C@H]32)[C@@H](C)[C@@H]1O` [Compound 13, 1-(3,5-dimethylbenzyl)-4-(2-(8-hydroxy-4,7,9,12-tetramethyl-3-oxo-7-vinyldecahydro-4,9a-propancyclopent[8]cyclen-5-yl)oxy)-2-oxoethyl)thiazol-4-yl)pyridyl bromide salt], the MIC turned out to be 128 µg/mL in experiment [1] (setting [15]); 128 µg/mL in experiment [2] (setting [16]); 32 µg/mL in experiment [3] (setting [17]); 16 µg/mL in experiment [7] (setting [18]); 64 µg/mL in experiment [4] (setting [19]); 32 µg/mL in experiment [8] (setting [20]). Further, the values for the MIC in experiment [5] (setting [21]) and in experiment [6] (setting [22]) were 64 µg/mL and 8 µg/mL, respectively.

With `C=C[C@]1(C)C[C@@H](OC(=O)CSc2nc(-c3cc[n+](Cc4cc(OC)cc(OC)c4)cc3)cs2)[C@]2(C)[C@H](C)CC[C@]3(CCC(=O)[C@H]32)[C@@H](C)[C@@H]1O` [Compound 14, 1-(3,5-dimethoxybenzyl)-4-(2-(8-hydroxy-4,7,9,12-tetramethyl-3-oxo-7-vinyldecahydro-4,9a-propancyclopent[8]cyclen-5-yl)oxy)-2-oxoethyl)thiazol-4-yl)pyridyl bromide salt], the MIC stood at 64 µg/mL in experiment [1] (setting [15]); 128 µg/mL in experiment [2] (setting [16]); 8 µg/mL in experiment [3] (setting [17]); 16 µg/mL in experiment [7] (setting [18]); 64 µg/mL in experiment [4] (setting [19]); 32 µg/mL in experiment [8] (setting [20]). Further, the MIC in experiment [5] (setting [21]) worked out at 64 µg/mL; in experiment [6] (setting [22]), 8 µg/mL.
